According to patent US6784137B2, “6-aryl-4-aminopicolinates and their use as herbicides” (Dow AgroSciences LLC, priority 2001, dated 2004):
Where two headings read alike, the source gives them in different places.

Legend:
[1] = test system: Yellow nutsedge (Cyperus esculentus); assay: Postemergence herbicidal activity, greenhouse spray; assay type: in vivo; settings: Cyperus, post-emergence, 336 h, visual score after 2 weeks, read-out: Post-emergent % control CYPES; for pest or weed control at 500 ppm: rate 500 ppm; for pest or weed control at 250 ppm: rate 250 ppm; for pest or weed control at 125 ppm: rate 125 ppm
Method in brief: (§1)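 Postemergence application by compressed-air atomizer ([…]) onto plants at the 1-2 true leaf stage; rates set by serial dilution of acetone:DMSO stock into the spray carrier. Plants were kept in a greenhouse with ~15 hr photoperiod and sub-irrigated.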

[2] = test system: Lambsquarter (Chenopodium album); assay: as above; assay type: in vivo; settings: Chenopodium album, post-emergence, 336 h, visual score after 2 weeks, read-out: Post-emergent % control CHEAL; for pest or weed control at 500 ppm: rate 500 ppm; for pest or weed control at 250 ppm: rate 250 ppm; for pest or weed control at 125 ppm: rate 125 ppm
Method in brief: as §1

[3] = test system: Cocklebur (Xanthium strumarium); assay: as above; assay type: in vivo; settings: Xanthium strumarium, post-emergence, 336 h, visual score after 2 weeks, read-out: Post-emergent % control XANST; for pest or weed control at 500 ppm: rate 500 ppm, 0 no injury, 100 complete kill; for pest or weed control at 250 ppm: rate 250 ppm; for pest or weed control at 125 ppm: rate 125 ppm
Method in brief: as §1

[4] = test system: Barnyardgrass (Echinochloa crus-galli); assay: as above; assay type: in vivo; settings: Echinochloa crus-galli, post-emergence, 336 h, visual score after 2 weeks, read-out: Post-emergent % control ECHCG; for pest or weed control at 500 ppm: rate 500 ppm; for pest or weed control at 250 ppm: rate 250 ppm; for pest or weed control at 125 ppm: rate 125 ppm
Method in brief: as §1

[5] = test system: Giant Foxtail (Setaria faberi); assay: Preemergence herbicidal activity, soil spray; assay type: in vivo; settings: Setaria faberi, pre-emergence, 504 h, Table 5, visual score after 3 weeks, read-out: Pre-emergent % control SETFA; for pest or weed control at 140 ppm: rate 140 ppm; for pest or weed control at 560 ppm: rate 560 ppm
Description: (§2) Seeds of the desired test plant species were planted in a soil matrix prepared by mixing a loam soil (43 percent silt, 19 percent clay, and 38 percent sand, with a pH of about 8.1 and an organic matter content of about 1.5 percent) and sand in a 70 to 30 ratio. The soil matrix was contained in plastic pots with a surface area of 113 square centimeters. When required to ensure good germination and healthy plants, a fungicide treatment and/or other chemical or physical treatment was applied. A weighed amount, determined by the highest rate to be tested, of each test compound was placed in a 20 mL glass vial and was dissolved in 4 mL of a 97:3 v/v (volume/volume) mixture of acetone and dimethyl sulfoxide to obtain concentrated stock solutions. […] The stock solutions obtained were diluted with a 99.9:0.1 mixture of water and Tween® 155 surfactant to obtain application solutions of known concentration. The solutions containing the highest concentration to be tested were prepared by diluting 2 mL aliquots of the stock solution with 15 mL of the mixture and lower concentrations were prepared by serial dilution of the stock solution. A 2.5 mL aliquot of each solution of known concentration was sprayed evenly onto the soil surface (113 sq. cm) of each seeded pot using a Cornwall 5.0 mL glass syringe fitted with a TeeJet TN-3 hollow cone nozzle to obtain thorough coverage of the soil in each pot. Control pots were sprayed in the same manner with the aqueous mixture. The treated pots and control pots were placed in a greenhouse maintained with an approximate 15 hr photoperiod and temperatures of about 23-29° C. during the day and 22-28° C. during the night. Nutrients and water were added on a regular basis and supplemental lighting was provided with overhead metal halide 1000-Watt lamps as necessary. The water was added by top-irrigation.

[6] = test system: Lambsquarter (Chenopodium album); assay: Preemergence herbicidal activity, soil spray; assay type: in vivo; settings: Chenopodium album, pre-emergence, 504 h, Table 5, visual score after 3 weeks, read-out: Pre-emergent % control CHEAL; for pest or weed control at 140 ppm: rate 140 ppm; for pest or weed control at 560 ppm: rate 560 ppm, 100 complete kill or no germination
Description: as §2

[7] = test system: Crabgrass(large) (Digitaria sanguinalis); assay: Preemergence herbicidal activity, soil spray; assay type: in vivo; settings: Digitaria sanguinalis, pre-emergence, 504 h, Table 5, visual score after 3 weeks, read-out: Pre-emergent % control DIGSA; for pest or weed control at 140 ppm: rate 140 ppm; for pest or weed control at 560 ppm: rate 560 ppm
Description: as §2

[8] = test system: Pigweed (redroot) (Amaranthus retroflexus); assay: Preemergence herbicidal activity, soil spray; assay type: in vivo; settings: Amaranthus retroflexus, pre-emergence, 504 h, Table 5, visual score after 3 weeks, read-out: Pre-emergent % control AMARE; for pest or weed control at 140 ppm: rate 140 ppm; for pest or weed control at 560 ppm: rate 560 ppm
Description: as §2

Structure (SMILES)	melting point	pest or weed control at 500 ppm ([1]; Table 1) [%]	pest or weed control at 500 ppm ([2]; Table 1) [%]	pest or weed control at 500 ppm ([3]; Table 1) [%]	pest or weed control at 500 ppm ([4]; Table 1) [%]	pest or weed control at 140 ppm [5] [%]	pest or weed control at 140 ppm [6] [%]	pest or weed control at 140 ppm [7] [%]	pest or weed control at 140 ppm [8] [%]	pest or weed control at 250 ppm ([1]; Table 1) [%]	pest or weed control at 250 ppm ([2]; Table 1) [%]	pest or weed control at 250 ppm ([3]; Table 1) [%]	pest or weed control at 560 ppm [5] [%]	pest or weed control at 560 ppm [6] [%]	pest or weed control at 560 ppm [7] [%]	pest or weed control at 560 ppm [8] [%]	pest or weed control at 125 ppm ([1]; Table 2) [%]	pest or weed control at 125 ppm ([2]; Table 2) [%]	pest or weed control at 125 ppm ([3]; Table 2) [%]	pest or weed control at 125 ppm ([4]; Table 2) [%]	other results
Cc1ccc(-c2nc(C(=O)O)c(F)c(N)c2F)cc1 [Compound 203, 4-Amino-3,5-difluoro-6-(4-methylphenyl)pyridine-2-carboxylic acid]	144 to 145 °C	95	100	100	95	85	95	100	100												
COC(=O)c1nc(-c2ccc(C)cc2)c(F)c(N)c1F [Compound 91, Methyl 4-amino-3,5-difluoro-6-(4-methylphenyl)pyridine-2-carboxylate]	145 to 146 °C	80	100	100	90								60	90	100	100					
COC(=O)c1nc(-c2ccc(Cl)cc2)c(Cl)c(N)c1Cl [Compound 86, Methyl 4-amino-3,5-dichloro-6-(4-chlorophenyl)pyridine-2-carboxylate]	160 to 162 °C	90	100	100	90								40	100	40	100	100	100	100	80	
Nc1c(F)c(-c2ccc3c(c2)OCO3)nc(C(=O)O)c1Cl [Compound 196, 4-Amino-3-chloro-5-fluoro-6-(3,4-methylenedioxyphenyl)pyridine-2-carboxylic acid]	169 °C									98	100	100	100	100	100	100	100	100	100	100	pest or weed control at 250 ppm ([4]; Table 1): 100%
Nc1c(F)c(C(=O)O)nc(-c2ccccc2Cl)c1F [Compound 202, 4-Amino-3,5-difluoro-6-(6-chlorophenyl)pyridine-2-carboxylic acid]	166 to 167 °C (dec.)	95	100	100	100	95	95	100	100								80	100	100	70	

More lines, main results first:

melting point	Structure (SMILES)	pest or weed control at 500 ppm ([1]; Table 1) [%]	pest or weed control at 500 ppm ([2]; Table 1) [%]	pest or weed control at 500 ppm ([3]; Table 1) [%]	pest or weed control at 500 ppm ([4]; Table 1) [%]	pest or weed control at 140 ppm [5] [%]	pest or weed control at 140 ppm [6] [%]	pest or weed control at 140 ppm [7] [%]	pest or weed control at 140 ppm [8] [%]	pest or weed control at 250 ppm ([1]; Table 1) [%]	pest or weed control at 250 ppm ([2]; Table 1) [%]	pest or weed control at 250 ppm ([3]; Table 1) [%]	pest or weed control at 560 ppm [5] [%]	pest or weed control at 560 ppm [6] [%]	pest or weed control at 560 ppm [7] [%]	pest or weed control at 560 ppm [8] [%]	pest or weed control at 125 ppm ([1]; Table 2) [%]	pest or weed control at 125 ppm ([2]; Table 2) [%]	pest or weed control at 125 ppm ([3]; Table 2) [%]	pest or weed control at 125 ppm ([4]; Table 2) [%]	other results
173 to 175 °C	Cc1cccc(-c2cc(N)c(Cl)c(C(=O)O)n2)c1 [Compound 138, 4-Amino-3-chloro-6-(3-methylphenyl)pyridine-2-carboxylic acid]									20	100	100	98	100	100	100					pest or weed control at 250 ppm ([4]; Table 1): 50%
175 to 176 °C	Nc1cc(-c2ccc(C(F)(F)F)cc2)nc(C(=O)O)c1Cl [Compound 152, 4-Amino-3-chloro-6-[4-(trifluoromethyl)phenyl]pyridine-2-carboxylic acid]					100	100	100	95												pest or weed control at 125 ppm ([1]; Table 1): 95%; pest or weed control at 125 ppm ([2]; Table 1): 100%; pest or weed control at 125 ppm ([3]; Table 1): 100%; pest or weed control at 125 ppm ([4]; Table 1): 90%
148 to 149 °C	COC(=O)c1nc(-c2ccc(OC)cc2)cc(N)c1Cl [Compound 17, Methyl 4-amino-3-chloro-6-(4-methoxyphenyl)pyridine-2-carboxylate]									70	100	100	100	100	100	100					pest or weed control at 250 ppm ([4]; Table 1): 70%
165 °C	Nc1cc(-c2ccc(Cl)cc2)nc(C(=O)O)c1Cl [Compound 154, 4-Amino-3-chloro-6-(4-chlorophenyl)pyridine-2-carboxylic acid]	100	100	100	100	100	100	100	100								90	100	100	70	
156 to 157 °C	Nc1cc(-c2ccc(Cl)c(F)c2)nc(C(=O)O)c1Cl [Compound 181, 4-Amino-3-chloro-6-(4-chloro-3-fluorophenyl)pyridine-2-carboxylic acid]	100	100	100	100	100	100	100	100								85	100	100	70	
